# Assay results taken from patent US6114335A, “Benzoylguanidine derivatives, process for their preparation their use in the preparation of medicines” (Boehringer Ingelheim KG, priority 1996, dated 2000).
# Biological target: T1, Na^+ /H^+ Exchanger (Homo sapiens, UniProt P19634)
# T1 construct: Human Intestinal Cancer Cells (HT-29); endogenous in cells; host or cells: HT-29
# Assay: Inhibition of the Na^+ /H^+ Exchanger in Human Intestinal Cancer Cells (HT-29)
# Type: cell-based
# Settings: HT-29 cells; BCECF fluorescence, cytoplasmic pH; 4 minutes at 37° C., pH 7.0
# Method: Inhibition of the Na^+ /H^+ Exchanger in Human Intestinal Cancer Cells (HT-29):
# HT-29 cells were incubated in growth medium at 37° C., 5% CO2. After 3-5 days the growth medium was removed, the cells were washed and charged with 7.5 μM BCECF-AM (pH-sensitive fluorescent dye) at 37° C. without any CO2. After 30 minutes the cells were washed and acidified with the following medium: 70 mM choline chloride, 20 mM NH4 Cl, […], 1.8 mM CaC2, 5 mM glucose and 15 mM HEPES, pH 7.5.
# After 6 minutes incubation at 37° C. without CO2, the cells were washed and incubated for 5 minutes with washing medium: 120 mM choline chloride, 5 mM KCl, 1 mM MgCl2, 1.8 mM CaCl2, 5 mM glucose and 15 mM MOPS, pH 7.0. The washing medium was removed and control medium was added with or without the test compound: 120 mM NaCl, 5 mM KCl, 1 mM MgCl2, 1.8 mM CaCl2, 5 mM glucose, 15 mM MOPS, pH 7.0.
# The cells were incubated for 4 minutes at 37° C. without CO2 and measured by fluorimetry (CytoFluor 2350). The fluorescence of the dye BCECF was measured at the excitation wavelengths of 485 nm (pH sensitive) and 440 nm (non pH-sensitive) and at the emission wavelength of 530 nm. The cytoplasmic pH was calculated from the ratio of fluorescences at 485 and 440 nm. The fluorescence ratio was calibrated by measuring the fluorescence signal after equilibration of external and internal pH with nigericin.
# T1 sequence (P19634 whole entry): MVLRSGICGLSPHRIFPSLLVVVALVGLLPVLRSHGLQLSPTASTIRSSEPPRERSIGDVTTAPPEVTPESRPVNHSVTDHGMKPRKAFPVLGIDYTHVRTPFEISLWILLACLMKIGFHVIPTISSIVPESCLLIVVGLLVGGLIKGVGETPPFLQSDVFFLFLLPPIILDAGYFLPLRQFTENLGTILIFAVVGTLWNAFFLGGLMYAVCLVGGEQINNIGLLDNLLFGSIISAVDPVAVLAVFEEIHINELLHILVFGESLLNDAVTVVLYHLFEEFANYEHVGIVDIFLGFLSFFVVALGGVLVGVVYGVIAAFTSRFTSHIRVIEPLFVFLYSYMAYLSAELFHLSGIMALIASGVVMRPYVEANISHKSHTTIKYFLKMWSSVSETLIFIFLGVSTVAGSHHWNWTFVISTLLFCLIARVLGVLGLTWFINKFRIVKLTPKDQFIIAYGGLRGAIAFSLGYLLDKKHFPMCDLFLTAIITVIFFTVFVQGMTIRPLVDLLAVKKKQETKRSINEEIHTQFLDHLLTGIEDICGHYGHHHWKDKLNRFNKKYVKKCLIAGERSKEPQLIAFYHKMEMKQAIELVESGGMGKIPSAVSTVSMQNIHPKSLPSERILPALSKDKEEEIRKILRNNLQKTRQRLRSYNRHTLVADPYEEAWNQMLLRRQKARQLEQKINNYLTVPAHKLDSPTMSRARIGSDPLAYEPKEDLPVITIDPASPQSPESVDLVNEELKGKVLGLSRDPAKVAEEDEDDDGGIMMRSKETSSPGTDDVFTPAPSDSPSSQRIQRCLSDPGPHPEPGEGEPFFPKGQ
row,IC50,Compound
1,500 nM,CN(C)CCN1CCN(c2ccc(C(=O)N=C(N)N)cc2S(C)(=O)=O)CC1 [Example 1]
2,29 nM,CS(=O)(=O)c1cc(C(=O)N=C(N)N)ccc1N1CCN(C(=O)c2ccco2)CC1 [Example 3]
3,31 nM,CS(=O)(=O)c1cc(C(=O)N=C(N)N)ccc1N1CCN(C(=O)c2cccs2)CC1 [Example 4]
